This experiment has as its system HIV. Nature of the experiment: MT4 assay: antiviral HIV activity in MT-4 cells. Type of experiment: cell-based. To be noted: read-out 96 hours later with cell titer glo, 10 point dose response; for IC50: Human immunodeficiency virus 1, MT4, 96 h, read-out: HIV MT4 Assay IC50 (μM), HTLV-1 transformed cell line MT-4. How it is done: Antiviral HIV activity and cytotoxicity values for compounds of the invention from Table 1 were measured in parallel in the HTLV-1 transformed cell line MT-4 based on the method previously described (Hazen et al., 2007, In vitro antiviral activity of the novel, tyrosyl-based human immunodeficiency virus (HIV) type 1 protease inhibitor brecanavir (GW640385) in combination with other antiretrovirals and against a panel of protease inhibitor-resistant HIV (Hazen et al., “In vitro antiviral activity of the novel, tyrosyl-based human immunodeficiency virus (HIV) type 1 protease inhibitor brecanavir (GW640385) in combination with other antiretrovirals and against a panel of protease inhibitor-resistant HIV”, Antimicrob. Agents Chemother. 2007, 51: 3147-3154; and Pauwels et al., “Sensitive and rapid assay on MT-4 cells for the detection of antiviral compounds against the AIDS virus”, J. of Virological Methods 1987, 16: 171-185).
Luciferase activity was measured 96 hours later by adding a cell titer glo (Promega, Madison, Wis.). Percent inhibition of cell protection data was plotted relative to no compound control. Under the same condition, cytotoxicity of the compounds was determined using cell titer Glo™ (Promega, Madison, Wis.). IC50s were determined from a 10 point dose response curve using 3-4-fold serial dilution for each compound, which spans a concentration range>1000 fold.
These values are plotted against the molar compound concentrations using the standard four parameter logistic equation: y=((Vmax*x^n)/(K^n+x^n))+Y2
Y2=minimum y n=slope factor
Vmax=maximum y x=compound concentration [M]

This note sets out measurements from patent US8609653B2, “Azaindole compounds and methods for treating HIV” (priority 2011, dated 2013).

pIC50: −log10 of the molar value. Where a name gives a salt, the structure may show the parent alone. Read-outs that look alike come from different tables or passages of the source.

As usually defined, the pIC50 is the IC50 on a negative log10 scale, so that one unit is a factor of ten. `Cc1nc2c(c3c(n2C)CCCC3)c(-c2ccc3c(c2C)NCCO3)c1[C@H](OC(C)(C)C)C(=O)O` (atropisomer, axis not shown; (P)) [Example 129, (2S)(P)-2-(tert-butoxy)-2-(2,9-dimethyl-4-(5-methyl-3,4-dihydro-2H-benzo[b][1,4]oxazin-6-yl)-6,7,8,9-tetrahydro-5H-pyrido[2,3-b]indol-3-yl)acetic acid, Trifluoroacetic acid salt]: under “read-out: HIV MT4 Assay IC50, HTLV-1 transformed cell line MT-4, Trifluoroacetic acid salt”, the pIC50 is 6.00.
The term IC50 denotes the midpoint of a concentration-inhibition curve. Consider `Cc1ccc(-c2c(C(OC(C)(C)C)C(=O)O)c(C)nc3c2ccn3Cc2ccc(F)cc2)cc1` (stereo not shown) [Example 1, 2-(tert-butoxy)-2-(1-(4-fluorobenzyl)-6-methyl-4-(p-tolyl)-1H-pyrrolo[2,3-b]pyridin-5-yl)acetic acid], for which the half-maximal inhibitory concentration (IC50) stood at 0.18 µM.
As for `Cc1ccc(-c2c([C@H](OC(C)(C)C)C(=O)O)c(C)nc3c2ccn3Cc2ccc(F)cc2)cc1` [Example 2, (S)-2-(tert-butoxy)-2-(1-(4-fluorobenzyl)-6-methyl-4-(p-tolyl)-1H-pyrrolo[2,3-b]pyridin-5-yl)acetic acid], the 50% inhibitory concentration (IC50) was 0.08 µM.
With `Cc1nc2c(ccn2Cc2ccc(F)c(F)c2)c(-c2ccc(Cl)cc2)c1[C@H](OC(C)(C)C)C(=O)O` [Example 3, (S)-2-(tert-butoxy)-2-(4-(4-chlorophenyl)-1-(3,4-difluorobenzyl)-6-methyl-1H-pyrrolo[2,3-b]pyridin-5-yl)acetic acid], the IC50 stood at 0.09 µM.
Still for that read-out and setting: the figure for `Cc1ccc(-c2c(C(OC(C)(C)C)C(=O)O)c(C)nc3c2ccn3Cc2ccccn2)cc1` (stereo not shown) [Example 4, 2-(tert-Butoxy)-2-(6-methyl-1-(pyridin-2-ylmethyl)-4-(p-tolyl)-1H-pyrrolo[2,3-b]pyridin-5-yl)acetic acid, Trifluoroacetic acid salt] is 1.05 µM; for `Cc1ccc(-c2c(C(OC(C)(C)C)C(=O)O)c(C)nc3c2ccn3Cc2ccc(F)c(F)c2)cc1` (stereo not shown) [Example 5, 2-(tert-butoxy)-2-(1-(3,4-difluorobenzyl)-6-methyl-4-(p-tolyl)-1H-pyrrolo[2,3-b]pyridin-5-yl)acetic acid] it is 0.2 µM; for `Cc1ccc(-c2c(C(OC(C)(C)C)C(=O)O)c(C)nc3c2ccn3Cc2cc(F)ccc2F)cc1` (stereo not shown) [Example 6, 2-(tert-butoxy)-2-(1-(2,5-difluorobenzyl)-6-methyl-4-(p-tolyl)-1H-pyrrolo[2,3-b]pyridin-5-yl)acetic acid] it is 0.182 µM.
Same read-out and setting: as for `Cc1ccc(-c2c([C@H](OC(C)(C)C)C(=O)O)c(C)nc3c2ccn3Cc2cc(F)ccc2F)cc1` [Example 7, (S)-2-(tert-butoxy)-2-(1-(2,5-difluorobenzyl)-6-methyl-4-(p-tolyl)-1H-pyrrolo[2,3-b]pyridin-5-yl)acetic acid], the figure is 0.106 µM.
With `Cc1ccc(-c2c(C(OC(C)(C)C)C(=O)O)c(C)nc3c2ccn3Cc2cc(F)c(F)c(F)c2)cc1` (stereo not shown) [Example 8, 2-(tert-butoxy)-2-(6-methyl-4-(p-tolyl)-1-(3,4,5-trifluorobenzyl)-1H-pyrrolo[2,3-b]pyridin-5-yl)acetic acid], the 50% inhibitory concentration (IC50) stood at 0.16 µM.
Consider `Cc1ccc(-c2c([C@H](OC(C)(C)C)C(=O)O)c(C)nc3c2ccn3Cc2cc(F)c(F)c(F)c2)cc1` [Example 9, (S)-2-(tert-butoxy)-2-(6-methyl-4-(p-tolyl)-1-(3,4,5-trifluorobenzyl)-1H-pyrrolo[2,3-b]pyridin-5-yl)acetic acid], for which the IC50 is 0.04 µM.
For `Cc1ccc(-c2c([C@@H](OC(C)(C)C)C(=O)O)c(C)nc3c2ccn3Cc2cc(F)c(F)c(F)c2)cc1` [Example 10, (R)-2-(tert-butoxy)-2-(6-methyl-4-(p-tolyl)-1-(3,4,5-trifluorobenzyl)-1H-pyrrolo[2,3-b]pyridin-5-yl)acetic acid], the IC50 stood at 10 µM.
With `Cc1nc2c(ccn2Cc2ccc(F)c(F)c2)c(-c2ccc3c(c2)CCCO3)c1C(OC(C)(C)C)C(=O)O` (stereo not shown) [Example 11, 2-(tert-butoxy)-2-(4-(chroman-6-yl)-1-(3,4-difluorobenzyl)-6-methyl-1H-pyrrolo[2,3-b]pyridin-5-yl)acetic acid], the IC50 was 0.09 µM.
On to `Cc1ccc(-c2c(C(OC(C)(C)C)C(=O)O)c(C)nc3c2ccn3Cc2ccc(C)c(F)c2)cc1` (stereo not shown) [Example 12, 2-(tert-butoxy)-2-(1-(3-fluoro-4-methylbenzyl)-6-methyl-4-(p-tolyl)-1H-pyrrolo[2,3-b]pyridin-5-yl)acetic acid], for which the IC50 was determined as 2.1 µM.
Take `Cc1ccc(-c2c(C(OC(C)(C)C)C(=O)O)c(C)nc3c2ccn3Cc2ccc(F)cc2Cl)cc1` (stereo not shown) [Example 13, 2-(tert-butoxy)-2-(1-(2-chloro-4-fluorobenzyl)-6-methyl-4-(p-tolyl)-1H-pyrrolo[2,3-b]pyridin-5-yl)acetic acid]: the IC50 is 0.43 µM.
Same read-out and setting: as for `Cc1ccc(-c2c([C@@H](OC(C)(C)C)C(=O)O)c(C)nc3c2ccn3[C@H](C)c2ccc(F)cc2)cc1` [Example 14, (R)-2-(tert-butoxy)-2-(1-((R)-1-(4-fluorophenyl)ethyl)-6-methyl-4-(p-tolyl)-1H-pyrrolo[2,3-b]pyridin-5-yl)acetic acid], the figure is 0.71 µM.
The same measure, in the same setting: as for `Cc1ccc(-c2c([C@H](OC(C)(C)C)C(=O)O)c(C)nc3c2ccn3[C@H](C)c2ccc(F)cc2)cc1` [Example 15, (S)-2-(tert-butoxy)-2-(1-((R)-1-(4-fluorophenyl)ethyl)-6-methyl-4-(p-tolyl)-1H-pyrrolo[2,3-b]pyridin-5-yl)acetic acid], the figure is 0.1 µM.
Regarding `Cc1ccc(-c2c(C(OC(C)(C)C)C(=O)O)c(C)nc3c2ccn3Cc2ccc(Cl)c(F)c2)cc1` (stereo not shown) [Example 16, 2-(tert-butoxy)-2-(1-(4-chloro-3-fluorobenzyl)-6-methyl-4-(p-tolyl)-1H-pyrrolo[2,3-b]pyridin-5-yl)acetic acid], the IC50 is 0.36 µM.
Consider `Cc1ccc(-c2c([C@@H](OC(C)(C)C)C(=O)O)c(C)nc3c2ccn3Cc2ccc(F)c(F)c2)cc1` [Example 17, (R)-2-(tert-butoxy)-2-(1-(3,4-difluorobenzyl)-6-methyl-4-(p-tolyl)-1H-pyrrolo[2,3-b]pyridin-5-yl)acetic acid], for which the IC50 came to 10 µM.
On to `Cc1ccc(-c2c([C@H](OC(C)(C)C)C(=O)O)c(C)nc3c2ccn3Cc2ccc(F)c(F)c2)cc1` [Example 18, (S)-2-(tert-butoxy)-2-(1-(3,4-difluorobenzyl)-6-methyl-4-(p-tolyl)-1H-pyrrolo[2,3-b]pyridin-5-yl)acetic acid], for which the IC50 was found to be 0.1 µM.
Consider `Cc1ccc(-c2c(C(OC(C)(C)C)C(=O)O)c(C)nc3c2ccn3Cc2ccccc2)cc1` (stereo not shown) [Example 19, 2-(1-benzyl-6-methyl-4-(p-tolyl)-1H-pyrrolo[2,3-b]pyridin-5-yl)-2-(tert-butoxy)acetic acid], for which the IC50 turned out to be 0.17 µM.
Take `Cc1ccc(-c2c(C(OC(C)(C)C)C(=O)O)c(C)nc3c2ccn3Cc2cc(Cl)ccc2F)cc1` (stereo not shown) [Example 20, 2-(tert-butoxy)-2-(1-(5-chloro-2-fluorobenzyl)-6-methyl-4-(p-tolyl)-1H-pyrrolo[2,3-b]pyridin-5-yl)acetic acid]: the IC50 stood at 0.23 µM.
Still for that read-out and setting: the figure for `Cc1ccc(-c2c(C(OC(C)(C)C)C(=O)O)c(C)nc3c2ccn3Cc2cccc(F)c2F)cc1` (stereo not shown) [Example 21, 2-(tert-butoxy)-2-(1-(2,3-difluorobenzyl)-6-methyl-4-(p-tolyl)-1H-pyrrolo[2,3-b]pyridin-5-yl)acetic acid] is 0.1 µM; for `Cc1ccc(-c2c(C(OC(C)(C)C)C(=O)O)c(C)nc3c2ccn3Cc2cccc(Cl)c2F)cc1` (stereo not shown) [Example 22, 2-(tert-butoxy)-2-(1-(3-chloro-2-fluorobenzyl)-6-methyl-4-(p-tolyl)-1H-pyrrolo[2,3-b]pyridin-5-yl)acetic acid] it is 0.86 µM.
As for `Cc1ccc(-c2c(C(OC(C)(C)C)C(=O)O)c(C)nc3c2ccn3Cc2ccc(Cl)cc2F)cc1` (stereo not shown) [Example 23, 2-(tert-butoxy)-2-(1-(4-chloro-2-fluorobenzyl)-6-methyl-4-(p-tolyl)-1H-pyrrolo[2,3-b]pyridin-5-yl)acetic acid], the IC50 turned out to be 0.27 µM.
Take `Cc1ccc(-c2c(C(OC(C)(C)C)C(=O)O)c(C)nc3c2ccn3Cc2ccc(F)cc2F)cc1` (stereo not shown) [Example 24, 2-(tert-butoxy)-2-(1-(2,4-difluorobenzyl)-6-methyl-4-(p-tolyl)-1H-pyrrolo[2,3-b]pyridin-5-yl)acetic acid]: the IC50 was 0.125 µM.
On to `Cc1ccc(-c2c(C(OC(C)(C)C)C(=O)O)c(C)nc3c2ccn3Cc2ccc(F)c(C)c2)cc1` (stereo not shown) [Example 25, 2-(tert-butoxy)-2-(1-(4-fluoro-3-methylbenzyl)-6-methyl-4-(p-tolyl)-1H-pyrrolo[2,3-b]pyridin-5-yl)acetic acid], for which the IC50 stood at 0.14 µM.
Same read-out and setting: as for `Cc1ccc(-c2c(C(OC(C)(C)C)C(=O)O)c(C)nc3c2ccn3Cc2c(F)cc(F)cc2F)cc1` (stereo not shown) [Example 26, 2-(tert-butoxy)-2-(6-methyl-4-(p-tolyl)-1-(2,4,6-trifluorobenzyl)-1H-pyrrolo[2,3-b]pyridin-5-yl)acetic acid], the figure is 0.12 µM.
On to `Cc1nc2c(ccn2Cc2ccc(F)cc2)c(-c2ccc3c(c2)CCCO3)c1C(OC(C)(C)C)C(=O)O` (stereo not shown) [Example 27, 2-(tert-butoxy)-2-(4-(chroman-6-yl)-1-(4-fluorobenzyl)-6-methyl-1H-pyrrolo[2,3-b]pyridin-5-yl)acetic acid], for which the IC50 was 0.08 µM.
